Laboratory results as given in US9708314B2, “Heterocyclic amide compound” (NISSAN CHEMICAL INDUSTRIES, LTD., priority 2013, dated 2017).

How the values were obtained:
Type in all cases: in vivo
[1] = system: Beta vulgaris ssp. vulgaris; experiment: Test Example 4: effect on crop by application to foliage (diluvial soil, plastic box); details: foliage application
In short: (§1)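 Emulsion-formulated compound, diluted to a predetermined g/ha dose, applied by small sprayer to leaves and stems of 14-day-old seedlings grown in sterilized diluvial soil. Effect rated on 0–5 herbicidal-ratio scale three weeks on.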

Glycine max = experiment: as above; details: foliage application
In short: as §1

Brassica campestris L. = experiment: as above; details: foliage application
In short: as §1

Zea mays = experiment: as above; details: foliage application
In short: as §1

Triticum aestivum = experiment: as above; details: foliage application
In short: as §1

[2] = system: directly sowed Oryza sativa; experiment: as above; details: foliage application
In short: as §1

[3] = system: directly sowed Oryza sativa; experiment: Test Example 3: effect on crop by application to foliage (Wagner pot, water depth 0.1-0.5 cm); details: Nineteenth Table; application to foliage; application herbicide amount 320 g/ha
In short: (§2)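 Visual 0–5 rating of herbicidal ratio, taken 3 weeks after foliar spray of a diluted emulsion formulation at rates expressed as g/ha. Plants had been sown in alluvial soil under 0.1–0.5 cm water and grown 14 days at 25–30 °C under glass before application.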

Galium spurium = experiment: Test Example 4: herbicidal effect by application to foliage (diluvial soil, plastic box); details: foliage application
In short: as §1

Alopecurus myosuroides = experiment: as above; details: foliage application
In short: as §1

[4] = system: Echinochloa crus-galli var. crus-galli; experiment: as above; details: foliage application
In short: as §1

Stellaria media = experiment: as above; details: foliage application
In short: as §1

Abutilon theophrasti = experiment: as above; details: foliage application
In short: as §1

Avena fatua = experiment: as above; details: foliage application
In short: as §1

Veronica persica = experiment: as above; details: foliage application
In short: as §1

Lolium multiflorum Lam. = experiment: as above; details: foliage application
In short: as §1

Setaria viridis = experiment: as above; details: foliage application
In short: as §1

Chenopodium album = experiment: as above; details: foliage application
In short: as §1

Digitaria ciliaris = experiment: as above; details: foliage application
In short: as §1

Apera spica-venti. = experiment: as above; details: foliage application
In short: as §1

Amaranthus retroflexus = experiment: as above; details: foliage application
In short: as §1

[5] = system: Echinochloa crus-galli var. crus-galli; experiment: Test Example 3: herbicidal effect by application to foliage (Wagner pot, water depth 0.1-0.5 cm); details: Nineteenth Table; application to foliage; application herbicide amount 320 g/ha
In short: as §2

Cyperus difformis = experiment: as above; details: Nineteenth Table; application to foliage; application herbicide amount 320 g/ha
In short: as §2

Leptochloa chinensis = experiment: as above; details: Nineteenth Table; application to foliage; application herbicide amount 320 g/ha
In short: as §2

[6] = Application herbicide amount 320 g/ha

Cc1nnc(NC(=O)c2ccc(C(F)(F)F)n3c(SCC#N)nnc23)o1 [1-117]
f (Beta vulgaris ssp. vulgaris) effect on crop grade [1, 6]: 3 (Herbicidal ratio of 40% or more and less than 70%) | d (Glycine max) effect on crop grade (Glycine max; [6]): 3 (Herbicidal ratio of 40% or more and less than 70%) | g (Brassica campestris L.) effect on crop grade (Brassica campestris L.; [6]): 1 (Herbicidal ratio of 5% or more and less than 20%) | c (Zea mays) effect on crop grade (Zea mays; [6]): 0 (Herbicidal ratio of 5% or less (almost no effect)) | e (Triticum aestivum) effect on crop grade (Triticum aestivum; [6]): 0 (Herbicidal ratio of 5% or less (almost no effect)) | b (directly sowed Oryza sativa) effect on crop grade [2, 6]: 0 (Herbicidal ratio of 5% or less (almost no effect)) | b (effect on crop grade) [3]: 0 (Herbicidal ratio of 5% or less (almost no effect)) | Q (Galium spurium) herbicidal effect grade (Galium spurium; [6]): 1 (Herbicidal ratio of 5% or more and less than 20%) | J (Alopecurus myosuroides) herbicidal effect grade (Alopecurus myosuroides; [6]): 0 (Herbicidal ratio of 5% or less (almost no effect)) | H (Echinochloa crus-galli var. crus-galli) herbicidal effect grade [4, 6]: 4 (Herbicidal ratio of 70% or more and less than 90%) | P (Stellaria media) herbicidal effect grade (Stellaria media; [6]): 3 (Herbicidal ratio of 40% or more and less than 70%) | M (Abutilon theophrasti) herbicidal effect grade (Abutilon theophrasti; [6]): 3 (Herbicidal ratio of 40% or more and less than 70%) | I (Avena fatua) herbicidal effect grade (Avena fatua; [6]): 0 (Herbicidal ratio of 5% or less (almost no effect)) | R (Veronica persica) herbicidal effect grade (Veronica persica; [6]): 3 (Herbicidal ratio of 40% or more and less than 70%) | K (Lolium multiflorum Lam.) herbicidal effect grade (Lolium multiflorum Lam.; [6]): 0 (Herbicidal ratio of 5% or less (almost no effect)) | G (Setaria viridis) herbicidal effect grade (Setaria viridis; [6]): 1 (Herbicidal ratio of 5% or more and less than 20%) | O (Chenopodium album) herbicidal effect grade (Chenopodium album; [6]): 5 (Herbicidal ratio of 90% or more (almost completely withered)) | F (Digitaria ciliaris) herbicidal effect grade (Digitaria ciliaris; [6]): 1 (Herbicidal ratio of 5% or more and less than 20%) | L (Apera spica-venti.) herbicidal effect grade (Apera spica-venti.; [6]): 0 (Herbicidal ratio of 5% or less (almost no effect)) | N (Amaranthus retroflexus) herbicidal effect grade (Amaranthus retroflexus; [6]): 3 (Herbicidal ratio of 40% or more and less than 70%) | H (herbicidal effect grade) [5]: 4 (Herbicidal ratio of 70% or more and less than 90%) | E (herbicidal effect grade) (Cyperus difformis): 2 (Herbicidal ratio of 20% or more and less than 40%) | D (herbicidal effect grade) (Leptochloa chinensis): 4 (Herbicidal ratio of 70% or more and less than 90%)

Cn1nnnc1NC(=O)c1ccc(C(F)(F)F)n2c(CS(=O)(=O)CC(F)(F)F)nnc12 [2-036]
f (Beta vulgaris ssp. vulgaris) effect on crop grade ([1]; 320 g/ha): 5 (Herbicidal ratio of 90% or more (almost completely withered)) | c (Glycine max) effect on crop grade (Glycine max; 320 g/ha): 0 (Herbicidal ratio of 5% or less (almost no effect)) | g (Brassica campestris L.) effect on crop grade (Brassica campestris L.; 320 g/ha): 3 (Herbicidal ratio of 40% or more and less than 70%) | b (Zea mays) effect on crop grade (Zea mays; 320 g/ha): 0 (Herbicidal ratio of 5% or less (almost no effect)) | e (Triticum aestivum) effect on crop grade (Triticum aestivum; 320 g/ha): 0 (Herbicidal ratio of 5% or less (almost no effect)) | d (directly sowed Oryza sativa) effect on crop grade ([2]; 320 g/ha): 2 (Herbicidal ratio of 20% or more and less than 40%) | b (effect on crop grade) [3]: 1 (Herbicidal ratio of 5% or more and less than 20%) | Q (Galium spurium) herbicidal effect grade (Galium spurium; 320 g/ha): 4 (Herbicidal ratio of 70% or more and less than 90%) | J (Alopecurus myosuroides) herbicidal effect grade (Alopecurus myosuroides; 320 g/ha): 0 (Herbicidal ratio of 5% or less (almost no effect)) | H (Echinochloa crus-galli var. crus-galli) herbicidal effect grade ([4]; 320 g/ha): 5 (Herbicidal ratio of 90% or more (almost completely withered)) | P (Stellaria media) herbicidal effect grade (Stellaria media; 320 g/ha): 5 (Herbicidal ratio of 90% or more (almost completely withered)) | M (Abutilon theophrasti) herbicidal effect grade (Abutilon theophrasti; 320 g/ha): 5 (Herbicidal ratio of 90% or more (almost completely withered)) | I (Avena fatua) herbicidal effect grade (Avena fatua; 320 g/ha): 1 (Herbicidal ratio of 5% or more and less than 20%) | R (Veronica persica) herbicidal effect grade (Veronica persica; 320 g/ha): 4 (Herbicidal ratio of 70% or more and less than 90%) | K (Lolium multiflorum Lam.) herbicidal effect grade (Lolium multiflorum Lam.; 320 g/ha): 0 (Herbicidal ratio of 5% or less (almost no effect)) | G (Setaria viridis) herbicidal effect grade (Setaria viridis; 320 g/ha): 4 (Herbicidal ratio of 70% or more and less than 90%) | O (Chenopodium album) herbicidal effect grade (Chenopodium album; 320 g/ha): 5 (Herbicidal ratio of 90% or more (almost completely withered)) | F (Digitaria ciliaris) herbicidal effect grade (Digitaria ciliaris; 320 g/ha): 5 (Herbicidal ratio of 90% or more (almost completely withered)) | L (Apera spica-venti.) herbicidal effect grade (Apera spica-venti.; 320 g/ha): 3 (Herbicidal ratio of 40% or more and less than 70%) | N (Amaranthus retroflexus) herbicidal effect grade (Amaranthus retroflexus; 320 g/ha): 5 (Herbicidal ratio of 90% or more (almost completely withered)) | H (herbicidal effect grade) [5]: 4 (Herbicidal ratio of 70% or more and less than 90%) | E (herbicidal effect grade) (Cyperus difformis): 4 (Herbicidal ratio of 70% or more and less than 90%) | D (herbicidal effect grade) (Leptochloa chinensis): 5 (Herbicidal ratio of 90% or more (almost completely withered))
